The target of one data set is B*3909 (Homo sapiens, UniProt P01889, A182T/A93T/A95T/C349S/D138N/D201E/E176V/E187T/E204Q/K202T/Q94N/R155S/R180L/S121R/Y123S/Y140F/Y91C). In words: cell-based.
The next data set deals with aminopeptidase M. The following applies: pig, 37°C, up to 10 min.
The test system of another data set is 20S proteasome. The data set is described as follows: purified 20S proteasome. The note with it: human, 37°C, up to 24 h.
For data set [1], the target named is T1, aminopeptidase M from pig kidney (Sus scrofa, UniProt P15145).
T1 sequence (P15145 whole entry, looked up): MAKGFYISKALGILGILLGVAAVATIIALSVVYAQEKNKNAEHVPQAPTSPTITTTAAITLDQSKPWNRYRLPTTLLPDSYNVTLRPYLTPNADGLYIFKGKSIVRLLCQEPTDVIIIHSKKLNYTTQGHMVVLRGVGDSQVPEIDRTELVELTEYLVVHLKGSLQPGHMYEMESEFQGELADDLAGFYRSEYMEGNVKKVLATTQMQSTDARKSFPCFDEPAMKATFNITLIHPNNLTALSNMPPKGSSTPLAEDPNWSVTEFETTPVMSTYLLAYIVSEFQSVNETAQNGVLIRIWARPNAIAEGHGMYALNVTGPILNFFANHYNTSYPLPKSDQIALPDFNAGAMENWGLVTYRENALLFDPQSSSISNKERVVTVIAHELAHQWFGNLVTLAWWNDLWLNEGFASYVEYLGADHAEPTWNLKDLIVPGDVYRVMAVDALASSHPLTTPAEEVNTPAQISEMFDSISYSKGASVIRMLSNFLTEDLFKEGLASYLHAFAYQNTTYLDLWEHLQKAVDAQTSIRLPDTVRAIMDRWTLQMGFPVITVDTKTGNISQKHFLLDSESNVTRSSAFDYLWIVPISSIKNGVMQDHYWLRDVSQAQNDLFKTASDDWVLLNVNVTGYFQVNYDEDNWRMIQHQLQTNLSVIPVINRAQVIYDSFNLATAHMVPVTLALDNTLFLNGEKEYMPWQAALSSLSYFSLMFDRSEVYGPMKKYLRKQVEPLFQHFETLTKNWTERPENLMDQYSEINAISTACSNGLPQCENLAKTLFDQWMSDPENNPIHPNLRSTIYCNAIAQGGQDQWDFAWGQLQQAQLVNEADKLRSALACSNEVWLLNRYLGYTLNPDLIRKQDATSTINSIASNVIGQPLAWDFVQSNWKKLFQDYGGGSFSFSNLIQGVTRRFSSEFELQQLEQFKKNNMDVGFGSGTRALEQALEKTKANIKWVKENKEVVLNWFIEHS

5 compounds from paper PMC2193201 (The Journal of Experimental Medicine, 2000) can be followed below.

As usually defined, the pEC50 is −log10 of the EC50, conventionally taken in molar units.

pEC50: −log10 of the molar value. Where a SMILES comes first, the peptide text is derived from it.

`CC(C)C[C@H](NC(=O)[C@H](Cc1ccc(O)cc1)NC(=O)[C@H](Cc1ccccc1)NC(=O)[C@H](CCC(=O)O)NC(=O)[C@@H](NC(=O)[C@H](CCC(=O)O)NC(=O)[C@H](CC(=O)O)NC(=O)[C@H](CCCNC(=N)N)NC(=O)[C@H](C)N)[C@@H](C)O)C(=O)O` (H-ARDETEFYL-OH): the negative logarithm of the EC50 (pEC50) on B*3909 was 5.30. Same read-out and setting: in the case of `CC(C)C[C@H](NC(=O)[C@H](C)NC(=O)[C@@H](NC(=O)[C@@H](NC(=O)CNC(=O)[C@@H]1CCCN1C(=O)[C@H](CCCNC(=N)N)NC(=O)[C@@H](N)Cc1ccc(O)cc1)[C@@H](C)O)C(C)C)C(=O)O` [YRPGTVAL] (H-YRPGTVAL-OH) it was 4.92. Take NAc-SHVAVENAL: the not cleaved entry with aminopeptidase M was “signals remained strongly significant”. For the compound NAc-SHVAVENALGLDQQFAGLDLNSSDNQSGGS, the cleaved bond result with 20S proteasome was “L9-G10, major”. For the compound THGPPVQL, the “MALDI-TOF MS peak signal after digestion with aminopeptidase M” value in data set [1] is listed as “reduced almost to background levels”.
